Values quoted from earlier work as cited in paper PMC8513935.

Experiments:
[1] = log P octanol/water from commercial databases, averaged (the ESI); conditions: Octanol (wet), 25 C
[2] = experimental, compiled by the authors from the literature (the ESI cites the sources)
[3] = derived by the authors as gas->solvent minus gas->water (a hypothetical dry solvent; the ESI), not a two-phase measurement

Row | SMILES | log K of transfer, water to solvent [1] [log10 K] | log K of transfer, gas to solvent ([2]; Chloroform, 25 C) [log10 K] | log K of transfer, gas to solvent ([2]; Hexadecane, 25 C) [log10 K] | log K of transfer, gas to solvent ([2]; Water, 25 C) [log10 K] | log K of transfer, water to solvent ([3]; Chloroform, 25 C) [log10 K] | log K of transfer, water to solvent ([3]; Hexadecane, 25 C) [log10 K] | log K of transfer, gas to solvent ([2]; 1,2-Dichloroethane, 25 C) [log10 K] | log K of transfer, gas to solvent ([2]; CCl4, 25 C) [log10 K] | log K of transfer, gas to solvent ([2]; Octan-1-ol, 25 C) [log10 K] | log K of transfer, gas to solvent ([2]; Pentan-1-ol, 25 C) [log10 K] | log K of transfer, water to solvent ([3]; 1,2-Dichloroethane, 25 C) [log10 K] | log K of transfer, water to solvent ([3]; CCl4, 25 C) [log10 K] | log K of transfer, water to solvent ([3]; Octan-1-ol(dry), 25 C) [log10 K] | log K of transfer, water to solvent ([3]; Pentan-1-ol, 25 C) [log10 K] | log K of transfer, gas to solvent ([2]; Butan-1-ol, 25 C) [log10 K] | log K of transfer, gas to solvent ([2]; Butanone, 25 C) [log10 K] | log K of transfer, gas to solvent ([2]; Hexane, 25 C) [log10 K] | log K of transfer, water to solvent ([3]; Butan-1-ol, 25 C) [log10 K] | log K of transfer, water to solvent ([3]; Butanone, 25 C) [log10 K] | log K of transfer, water to solvent ([3]; Hexane, 25 C) [log10 K] | further results
1 | CN1CCCCC1 | 1.29 | 4.21 | 3.33 | 2.85 | 1.36 | 0.48 |  |  |  |  |  |  |  |  |  |  |  |  |  |  | 
2 | Cc1ccccc1C | 3.12 | 4.57 | 3.94 | 0.66 | 3.91 | 3.28 | 4.49 | 4.53 | 3.9 | 3.8 | 3.83 | 3.87 | 3.24 | 3.14 |  |  |  |  |  |  | log K of transfer, gas to solvent ([2]; Cyclohexane, 25 C): 3.98 log10 K; log K of transfer, gas to solvent ([2]; Toluene, 25 C): 4.48 log10 K; log K of transfer, water to solvent ([3]; Cyclohexane, 25 C): 3.32 log10 K; log K of transfer, water to solvent ([3]; Toluene, 25 C): 3.82 log10 K
3 | CCN(CC)CC | 1.45 | 4.22 | 3.04 | 2.36 | 1.86 | 0.68 | 3.21 | 3.54 |  | 3.64 | 0.85 | 1.18 |  | 1.28 | 3.56 | 3.05 | 3.29 | 1.2 | 0.69 | 0.93 | log K of transfer, gas to solvent ([2]; Butan-2-ol, 25 C): 3.53 log10 K; log K of transfer, gas to solvent ([2]; Chlorobenzene, 25 C): 3.35 log10 K; log K of transfer, gas to solvent ([2]; Cyclohexanone, 25 C): 3.01 log10 K; log K of transfer, gas to solvent ([2]; Diethyl Ether, 25 C): 3.26 log10 K; log K of transfer, gas to solvent ([2]; Ethanol, 25 C): 3.57 log10 K; log K of transfer, gas to solvent ([2]; Methanol, 25 C): 3.84 log10 K; log K of transfer, gas to solvent ([2]; Propan-1-ol, 25 C): 3.5 log10 K; log K of transfer, gas to solvent ([2]; Propan-2-ol, 25 C): 3.31 log10 K; log K of transfer, gas to solvent ([2]; Propanone, 25 C): 2.97 log10 K; log K of transfer, gas to solvent ([2]; Tetrahydrofuran, 25 C): 3.37 log10 K; log K of transfer, water to solvent ([3]; Acetone, 25 C): 0.61 log10 K; log K of transfer, water to solvent ([3]; Butan-2-ol, 25 C): 1.17 log10 K; log K of transfer, water to solvent ([3]; Chlorobenzene, 25 C): 0.99 log10 K; log K of transfer, water to solvent ([3]; Cyclohexanone, 25 C): 0.654 log10 K; log K of transfer, water to solvent ([3]; Diethyl Ether, 25 C): 0.9 log10 K; log K of transfer, water to solvent ([3]; Ethanol, 25 C): 1.21 log10 K; log K of transfer, water to solvent ([3]; Methanol, 25 C): 1.48 log10 K; log K of transfer, water to solvent ([3]; Propan-1-ol, 25 C): 1.14 log10 K; log K of transfer, water to solvent ([3]; Propan-2-ol, 25 C): 0.95 log10 K; log K of transfer, water to solvent ([3]; Tetrahydrofuran, 25 C): 1.01 log10 K
4 | C=CC | 1.77 |  | 0.946 | -0.97 |  | 1.92 |  | 1.35 |  | 0.97 |  | 2.32 |  | 1.94 | 1.03 | 1.13 | 1.29 | 2 | 2.1 | 2.25 | log K of transfer, gas to solvent ([2]; 2-Methylpropan-1-ol, 25 C): 0.95 log10 K; log K of transfer, gas to solvent ([2]; 2-Methylpropan-2-ol, 25 C): 0.99 log10 K; log K of transfer, gas to solvent ([2]; 3-Methylbutan-1-ol, 25 C): 0.963 log10 K; log K of transfer, gas to solvent ([2]; Butan-2-ol, 25 C): 0.97 log10 K; log K of transfer, gas to solvent ([2]; Methanol, 25 C): 0.95 log10 K; log K of transfer, gas to solvent ([2]; Propan-1-ol, 25 C): 0.99 log10 K; log K of transfer, gas to solvent ([2]; Propan-2-ol, 25 C): 0.97 log10 K; log K of transfer, water to solvent ([3]; 2-Methylpropan-1-ol, 25 C): 1.92 log10 K; log K of transfer, water to solvent ([3]; 2-Methylpropan-2-ol, 25 C): 1.96 log10 K; log K of transfer, water to solvent ([3]; 3-Methylbutan-1-ol, 25 C): 1.93 log10 K; log K of transfer, water to solvent ([3]; Butan-2-ol, 25 C): 1.94 log10 K; log K of transfer, water to solvent ([3]; Methanol, 25 C): 1.92 log10 K; log K of transfer, water to solvent ([3]; Propan-1-ol, 25 C): 1.96 log10 K; log K of transfer, water to solvent ([3]; Propan-2-ol, 25 C): 1.94 log10 K
5 | CCCCl | 2.04 | 2.65 | 2.2 | 0.24 | 2.41 | 1.96 | 2.71 | 2.71 | 2.24 |  | 2.47 | 2.47 | 2 |  | 2.32 | 2.7 | 2.47 | 2.08 | 2.46 | 2.23 | log K of transfer, gas to solvent ([2]; Cyclohexanone, 25 C): 2.69 log10 K; log K of transfer, water to solvent ([3]; Cyclohexanone, 25 C): 2.45 log10 K
